Measurements: patent US20140057940A1, “Methods for Treating or Preventing Cardiac and Neurological Disorders Using Chemokine Receptor Antagonists” (priority 2011, published 2014)

Key:
[1] = test system: isolated macaque cardiomyocytes; assay: Sarcomeric contraction of field-stimulated (1 Hz) isolated single cardiomyocytes; format: cell-based
Source text: In addition to SIV, the chemokines CCL3, CCL4, and CCL5 can also bind to CCR5 and initiate signaling pathways. In order to evaluate the ability of CCL5 to alter sarcomeric contraction in a CCR5-dependent manner, isolated single cardiomyocytes were field stimulated (1 Hz) and sarcomeric contraction measured over time.

[2] = test system: isolated macaque cardiomyocytes; assay: Calcium transient amplitude in isolated cardiomyocytes; format: cell-based; conditions: FIG. 1E, ANOVA P=0.72
[3] = test system: SIV/17E-Fr and SIV/DeltaB670; assay: SIV-infected rhesus macaques: survival, CD4+ cell count and viral loads; format: in vivo
Source text: Twenty-two adult rhesus macaques (mean age=11 years) pre-screened for SIV, STLV-1, and simian type D retrovirus were inoculated intravenously with the macrophagetropic clone SIV/17E-Fr and the immunosuppressive swarm SIV/DeltaB670 (FIG. 3). Age-matched adult rhesus macaques (mean age=11 years) were inoculated with media alone as controls. […] At euthanasia, all animals were perfused with saline to remove blood from the systemic vasculature. Hearts were immediately harvested and samples were immersion fixed in Streck Tissue Fixative (Streck, Omaha, Nebr.) or flash frozen.

[4] = test system: CD68+ macrophages and CD163 expression in the myocardium; assay: Immunostaining for macrophage markers CD68 and CD163 in myocardium; format: in vivo, rhesus macaques; conditions: SIV-infected macaques, FIG. 8
Source text: To characterize the mononuclear cell populations in myocardium, sections were immunostained for the macrophage marker CD68 and measured by quantitative image analysis. In uninfected animals, CD68+ immunostaining localized to single, round cells located diffusely throughout the myocardium with increased numbers around vessels, consistent with resident macrophages. In SIV-infected animals, CD68+macrophages in perivascular areas were more prominent, likely reflecting recruited, infiltrating macrophages. […] Myocardium was also immunostained for the macrophage marker CD 163. […] In control animals, spindle shaped CD163+ cells were present diffusely throughout the myocardium occasionally forming small clusters. In SIV-infected macaques, cells were similarly spindle shaped to stellate with more extensive cellular processes. […] Myocardial CD163 immunostaining was highly correlated with CD68 immunostaining.

[5] = test system: SIV/17E-Fr and SIV/DeltaB670; assay: SIV RNA levels in plasma, CSF, spleen and brain by qRT-PCR; format: in vivo, rhesus macaques; conditions: 200 mg PO BID from day 24 to day 180 post-inoculation
Experimental: (§1) To determine whether the CCR5 antagonist maraviroc altered CNS disease progression, SIV-infected animals from were treated with maraviroc and CNS outcomes were compared with untreated SIV-infected animals. Specifically, six rhesus macaques were inoculated with SIV/17E-Fr and SIV/DeltaB670 and treated with maraviroc (200 mg PO BID) beginning 24 days post-inoculation until the study endpoint 180 days postinoculation, 22 SIV-infected animals served as untreated, SIV-infected controls, and 8 additional animals served as untreated, uninfected controls (Example 2). Maraviroc levels in plasma and CSF were measured using liquid chromatography tandem mass spectrometry. SIV RNA levels in plasma, CSF, spleen, and brain were measured by qRT-PCR. Immunostaining for CD68 and amyloid precursor protein (APP) in the brain was measured by digital image analysis. Group comparisons were performed by the Mann-Whitney test.

[6] = test system: CD68 and amyloid precursor protein (APP) in the brain; assay: Immunostaining for CD68 and amyloid precursor protein (APP) in the brain; format: in vivo, rhesus macaques; conditions: 200 mg PO BID
Experimental: as §1

SIV-infected macaques = conditions: echocardiography, FIG. 7
[7] = SIV-infected macaques, 40 mg/kg orally twice per day
[8] = versus untreated SIV-infected macaques

Molecule: 4,4-difluoro-N-{(1S)-3-[exo-3-(3-isopropyl-5-methyl-4H-1,2,4-triazol-4-yl)-8-azabicyclo[3.2.1]oct-8-yl]-1-phenylpropyl}cyclohexanecarboxamide [maraviroc]
- effect on the induced reduction in sarcomeric contraction ([1]; addition after CCL5, FIG. 1A-1C): reversed
- difference in shortening between baseline and treatment ([1]; after CCL5, P=0.72): no significant difference
- effect on the CCL5-induced decrease in sarcomeric shortening ([1]; subsequent addition in the same cells, FIG. 1D): modulated the CCL5 effect towards basal contraction
- calcium transient amplitude ([2]; RANTES+MVC treatment): not altered
- outcomes (CSF, plasma, spleen, heart viral load) versus rapid (RP) and long term progression (LTP) groups ([3]; FIG. 6, LTP over 180 days post-SIV inoculation): improves outcomes in both RP and LTP groups
- CD4+ cell counts [3, 7]: increased
- survival relative to the untreated cohort [3, 7]: significantly increased
- viral load in CSF [3, 7]: reduced
- viral load in heart [3, 7]: reduced
- viral load in plasma [3, 7]: reduced
- viral load in spleen [3, 7]: reduced
- CD68+ macrophage level in myocardium [4]: do not change
- CD163 expression by macrophages in myocardium [4]: lowered to levels present in uninfected and untreated subjects
- SIV RNA levels in spleen [5]: reduced
- plasma viral load [5]: reduced
- SIV RNA levels in CSF [5, 8]: significantly lower
- SIV RNA levels in brain [5, 8]: significantly lower
- CNS macrophage activation represented by CD68 immunostaining ([6]; P<0.001, FIG. 10): lowered
- axonal APP immunostaining ([6]; P=0.003, FIG. 10): lowered
- mitral inflow parameters consistent with diastolic dysfunction with impaired relaxation (SIV-infected macaques): significantly ameliorated

B1: CCL5: specific chemokine ligand that can bind to CCR5 and initiate signaling pathways (protein, UniProt P13501 24-91, looked up)
C-C motif chemokine 5: SPYSSDTTPCCFAYIARPLPRAHIKEYFYTSGKCSNPAVVFVTRKNRQVCANPEKKWVREYINSLEMS
- sarcomeric shortening ([1]; 14 VCM, mean of 20 contraction cycles/cell at steady state, FIG. 1D, p<0.001): significantly decreased
- mean % decline in contraction from baseline contraction length ([1]; isolated macaque cardiomyocytes, FIG. 1C, P=0.009): 22%
- calcium transient amplitude ([2]; RANTES treatment): not altered
